From BindingDB's records for doi:10.7270/Q2B27SRF (Broad Institute, 2010)

The molecules below were run against Serine/threonine-protein kinase 33 (Homo sapiens, UniProt Q9BYT3) (assay: STK33 kinase inhibitors, dose response, biochemical, luminescence, cell-free, retest (AID 2821)).
Sequence of Serine/threonine-protein kinase 33 (Q9BYT3 whole entry): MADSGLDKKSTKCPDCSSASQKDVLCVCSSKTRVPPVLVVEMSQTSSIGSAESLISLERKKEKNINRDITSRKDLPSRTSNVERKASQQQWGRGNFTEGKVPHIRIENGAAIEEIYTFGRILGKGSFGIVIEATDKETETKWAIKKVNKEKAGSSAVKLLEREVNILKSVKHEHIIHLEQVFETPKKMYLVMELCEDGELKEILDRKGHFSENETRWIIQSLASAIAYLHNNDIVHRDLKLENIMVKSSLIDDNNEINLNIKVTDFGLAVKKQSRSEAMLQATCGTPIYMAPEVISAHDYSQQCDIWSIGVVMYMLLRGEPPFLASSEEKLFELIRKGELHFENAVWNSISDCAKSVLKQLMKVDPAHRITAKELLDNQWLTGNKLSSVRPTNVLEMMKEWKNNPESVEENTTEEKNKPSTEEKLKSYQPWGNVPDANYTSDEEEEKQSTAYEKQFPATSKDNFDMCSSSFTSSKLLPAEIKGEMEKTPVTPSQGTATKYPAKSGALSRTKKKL

EC50	SMILES
10.8 µM	O=C(Nc1ccccc1-c1ccccc1)c1ccc(Br)o1 [5-bromo-N-(2-phenylphenyl)furan-2-carboxamide]
44.9 µM	N#C/C(=C\c1ccc(O)c(O)c1)C(=O)c1ccc(O)c(O)c1 [(2E)-3-(3,4-dihydroxyphenyl)-2-[(3,4-dihydroxyphenyl)carbonyl]prop-2-enenitrile]
7.97 µM	Cc1cccc(N2CCN(CCCNC(=O)c3ccc(NC(=O)C4=CSCCO4)cc3)CC2C)c1 (stereo unspecified)
2.11 µM	O=C1N=C(NCc2ccccc2)SC1=Cc1ccc(O)cc1 [SMR000217101]
8.73 µM	O=C1NC(=O)/C(=C\c2ccc(O)cc2O)S1 [SMR000274064]
28.3 µM	O=C(O)c1ccc(NC(=O)c2cccc(C(=O)Nc3ccc(C(=O)O)cc3)n2)cc1 [4-[[6-[(4-carboxyphenyl)carbamoyl]pyridin-2-yl]carbonylamino]benzoic acid]
1.24 µM	NC(=O)NN=Cc1c(O)ccc2oc3c(c12)CCCC3 [SMR000414386]
> 120 µM	N#C/C(=C/C=C/c1ccccc1)C(=O)Nc1ccccc1 [2-cyano-N,5-diphenyl-2,4-pentadienamide]
14.9 µM	c1ccc(Nc2ccnc(Nc3ccccc3)n2)cc1 [N*2*,N*4*-Diphenyl-pyrimidine-2,4-diamine]
5.88 µM	O=C1c2c(O)ccc(O)c2C(=O)c2c(NCCNCCO)ccc(NCCNCCO)c21 [SMR000058480]
6.22 µM	O=NCc1c(Nc2ccccc2)nc2ccccn2c1=O [(3Z)-3-[(hydroxyamino)methylene]-2-phenylimino-pyrido[1,2-a]pyrimidin-4-one]
> 120 µM	CCCCCCCCCCCCCCCCn1cc[n+](C)c1 [1-cetyl-3-methyl-imidazol-3-ium;bromide]
38.9 µM	Cc1ccc2c(c1)/C(=C/c1ccco1)C(=O)N2 [SMR000312107]
> 120 µM	Cn1c(/N=N/c2ccccc2)nc2ccccc21 [(1-methyl-2-benzimidazolyl)-phenyldiazene]
49.7 µM	CCNC(=S)Nc1ccc2cn[nH]c2c1 [SMR000261305]
36.8 µM	O=C1N=c2ccccc2=C1NNc1ccc(C(=O)O)cc1 [4-[2-(2-oxidanylideneindol-3-yl)hydrazinyl]benzoic acid]
86 µM	COc1ccc(C2=CC3=C(Br)C(=O)C(C)(O)C(=O)C3=CO2)cc1 (stereo unspecified) [5-bromanyl-3-(4-methoxyphenyl)-7-methyl-7-oxidanyl-isochromene-6,8-dione]
6.2 µM	O=C(O)c1ccc(N=Cc2c(O)ccc3oc4c(c23)CCCC4)cc1 [4-{[1-(2-Hydroxy-6,7,8,9-tetrahydro-dibenzofuran-1-yl)-meth-(E)-ylidene]-amino}-benzoic acid]
30.9 µM	COc1ccccc1Nc1oc2cc(=O)ccc-2cc1C(N)=O [2-(2-methoxyanilino)-7-oxo-1-benzopyran-3-carboxamide]
> 120 µM	COc1ccc(-c2nc(-c3ccccn3)no2)cc1 [5-(4-methoxyphenyl)-3-(2-pyridinyl)-1,2,4-oxadiazole]
> 120 µM	CCCCCCCCCC[N+](C)(C)CC/C=C1/c2ccccc2Sc2ccc(Cl)cc21 [[(3Z)-3-(2-chloro-9-thioxanthenylidene)propyl]-decyl-dimethylammonium;bromide]
8.62 µM	CCOc1cc(C=C(C#N)c2n[nH]c(N)c2C#N)ccc1O [MLS000523215]

EC50	SMILES
19.3 µM	Cc1ccc(-c2nn(CCC(=O)O)cc2/C=C\C(=O)c2ccc(Br)cc2)cc1 [3-[4-[(Z)-3-(4-bromophenyl)-3-oxoprop-1-enyl]-3-(4-methylphenyl)pyrazol-1-yl]propanoic acid]
> 120 µM	S=C(NCc1ccccc1)Nc1ccc2cn[nH]c2c1 [1-(1H-indazol-6-yl)-3-(phenylmethyl)thiourea]
2.48 µM	CCCn1c2ccc(C(C)N=O)cc2c2cc(C(C)N=O)ccc21 (stereo unspecified) [1-[6-(1-hydroxyiminoethyl)-9-propyl-3-carbazolyl]ethanone oxime]
11 µM	CCn1c(C)nc2cc(-c3nc4n(n3)Cc3ccccc3-4)ccc21 [2-(1-ethyl-2-methyl-5-benzimidazolyl)-5H-[1,2,4]triazolo[5,1-a]isoindole]
2.84 µM	Oc1ccc(/N=C/c2c(O)ccc3ccccc23)cc1 [(1Z)-1-[(4-hydroxyanilino)methylidene]-2-naphthalenone]
9.71 µM	c1nc(N2CCCC2)c2[nH]cnc2n1 [6-(1-pyrrolidinyl)-7H-purine]
32.5 µM	O=C(O)c1cccc(Nc2nc(-c3cccnc3)nc3ccccc23)c1 [SMR000172180]
23.8 µM	Nc1ccc(N)c2c(O)c3ccccc3c(O)c12 [1,4-bis(azanyl)-2,3-dihydroanthracene-9,10-dione]
> 120 µM	CNC(=S)Nc1cccc(-c2cnc3ccccc3n2)c1
18.7 µM	CN(C)/C=C/C(=O)c1ccc2noc(-c3cccc(F)c3)c2c1 [(E)-3-(dimethylamino)-1-[3-(3-fluorophenyl)-2,1-benzoxazol-5-yl]-2-propen-1-one]
7.93 µM	CCN1C(=O)CC(c2ccccc2)N(C2CCCC2)c2nc(Nc3ccc(C(=O)NC4CCN(C)CC4)cc3OC)ncc21 (stereo unspecified)
> 120 µM	COC(=O)c1cc(NC(=O)C2COc3ccccc3O2)cc(C(=O)OC)c1 (stereo unspecified) [dimethyl 5-(2,3-dihydro-1,4-benzodioxin-3-ylcarbonylamino)benzene-1,3-dicarboxylate]
> 120 µM	Cc1ccc(NC(=S)Nc2ccc3cn[nH]c3c2)c(C)c1
40.9 µM	Oc1ccc(C=NNC(=S)NN=Cc2ccc(O)cc2)cc1 [1,3-bis[(4-oxo-1-cyclohexa-2,5-dienylidene)methylamino]thiourea]
15.9 µM	COc1cc(C=C2SC(Nc3ccc(Cl)c(C(=O)O)c3)=NC2=O)c(Br)c(Br)c1O [2-Chloro-5-[5-(2,3-dibromo-4-hydroxy-5-methoxy-benzylidene)-4-oxo-thiazolidin-2-ylideneamino]-benzoic acid]
> 120 µM	CCN(CC)c1ccc(Nc2nc(N3CCOCC3)c3ccccc3n2)cc1 [4-N,4-N-diethyl-1-N-(4-morpholin-4-ylquinazolin-2-yl)benzene-1,4-diamine]
0.883 µM	C=CC(=O)Nc1ccc(Nc2nc(NC3CCC(N(C)C)CC3)nc3c2ncn3C(C)C)cc1 (stereo unspecified) [N-[4-[[2-[[4-(dimethylamino)cyclohexyl]amino]-9-propan-2-yl-purin-6-yl]amino]phenyl]prop-2-enamide]
> 120 µM	Cc1c(C(=O)OCC(=O)N2c3ccccc3CC2C)oc2ccccc12 (stereo unspecified) [3-methyl-2-benzofurancarboxylic acid [2-(2-methyl-2,3-dihydroindol-1-yl)-2-oxoethyl] ester]
16.6 µM	CN1CCCC1CCNc1ccc2sc3ccccc3c(=O)c2c1 (stereo unspecified) [2-[2-(1-methyl-2-pyrrolidinyl)ethylamino]-9-thioxanthenone]
3.42 µM	Cc1ncc(C=C2C(=O)Nc3ccccc32)[nH]1 [3-[(Z)-(2-methyl-1H-imidazol-4-yl)methylidene]-1H-indol-2-one]
> 120 µM	COc1ccc(NC(=S)Nc2ccc3cn[nH]c3c2)cc1 [MLS001005420]
18.4 µM	O=C(c1ccc2c3n(nc2c1)-c1ccccc1CO3)N1CCOCC1 [5H-indazolo[2,3-a][3,1]benzoxazin-9-yl(4-morpholinyl)methanone]

SMILES	EC50
c1ccc2c3c([nH]c2c1)-c1n[nH]cc1CC3 [3,4,16-triazatetracyclo[7.7.0.0^{2,6}.0^{10,15}]hexadeca-1(9),2,5,10,12,14-hexaene]	61 µM
O=c1c(O)c(-c2ccc(O)c(O)c2)oc2cc(O)cc(O)c12 [2-(3,4-dihydroxyphenyl)-3,5,7-trihydroxy-chromone;hydrate]	12.4 µM
